Assay results taken from PMC5973995 (Clinical Pharmacokinetics, 2017).
Like-named read-outs stand apart in the source and are kept apart here.

Tests used:
[1] = format: in vivo, human; conditions: for AUC(0-t) / Tmax / Vd/F / half-life: both, human, plasma, oral; for AI (accumulation index = AUC(0–tau) at steady state/AUC(0–24) day 1) / CL/F / C max: healthy subjects, mean (% CV); for C max: steady state
[2] = Mass balance, single oral dose of 50 mg 14C-labeled vortioxetine; format: in vivo, human; conditions: single oral dose 50 mg 14C-labeled; data on file
CYP1A2 = molecular target: T1, CYP1A2 (Homo sapiens, UniProt P05177); experiment: In-vitro CYP inhibition in pooled human liver microsomes; format: in vitro ADME; conditions: data on file
T1 sequence (P05177 1-516): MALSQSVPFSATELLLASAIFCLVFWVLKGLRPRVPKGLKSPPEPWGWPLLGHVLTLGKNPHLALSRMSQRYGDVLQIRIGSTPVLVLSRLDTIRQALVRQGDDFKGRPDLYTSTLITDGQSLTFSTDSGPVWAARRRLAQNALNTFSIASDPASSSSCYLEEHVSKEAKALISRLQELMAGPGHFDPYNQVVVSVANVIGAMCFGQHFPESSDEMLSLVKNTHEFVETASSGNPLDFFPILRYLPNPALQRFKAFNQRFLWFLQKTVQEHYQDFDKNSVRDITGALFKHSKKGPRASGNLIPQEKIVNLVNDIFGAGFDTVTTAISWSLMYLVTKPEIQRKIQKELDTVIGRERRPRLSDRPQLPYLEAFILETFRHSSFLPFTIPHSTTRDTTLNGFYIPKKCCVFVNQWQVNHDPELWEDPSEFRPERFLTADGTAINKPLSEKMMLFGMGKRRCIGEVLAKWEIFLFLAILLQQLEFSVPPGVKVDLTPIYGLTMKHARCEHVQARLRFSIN

CYP2E1 = CYP2E1 (Homo sapiens, UniProt P05181); experiment: as above; format: in vitro ADME; conditions: data on file
Chain of CYP2E1 (P05181 whole entry): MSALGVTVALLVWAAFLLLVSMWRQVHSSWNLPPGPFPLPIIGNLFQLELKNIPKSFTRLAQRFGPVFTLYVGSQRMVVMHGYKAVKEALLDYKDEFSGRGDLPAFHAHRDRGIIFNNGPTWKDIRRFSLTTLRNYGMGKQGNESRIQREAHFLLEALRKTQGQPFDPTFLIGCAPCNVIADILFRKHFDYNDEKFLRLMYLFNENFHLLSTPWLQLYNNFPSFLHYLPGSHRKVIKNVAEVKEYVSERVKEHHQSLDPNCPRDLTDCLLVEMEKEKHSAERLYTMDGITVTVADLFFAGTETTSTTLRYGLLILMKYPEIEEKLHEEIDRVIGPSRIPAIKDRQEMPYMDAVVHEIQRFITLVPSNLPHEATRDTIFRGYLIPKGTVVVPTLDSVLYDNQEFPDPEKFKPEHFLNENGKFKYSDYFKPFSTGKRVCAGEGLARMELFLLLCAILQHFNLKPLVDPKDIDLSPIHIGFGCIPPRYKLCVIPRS

CYP2D6 = CYP2D6 (Homo sapiens, UniProt P10635); experiment: as above; format: in vitro ADME; conditions: data on file
Chain of CYP2D6 (P10635 whole entry): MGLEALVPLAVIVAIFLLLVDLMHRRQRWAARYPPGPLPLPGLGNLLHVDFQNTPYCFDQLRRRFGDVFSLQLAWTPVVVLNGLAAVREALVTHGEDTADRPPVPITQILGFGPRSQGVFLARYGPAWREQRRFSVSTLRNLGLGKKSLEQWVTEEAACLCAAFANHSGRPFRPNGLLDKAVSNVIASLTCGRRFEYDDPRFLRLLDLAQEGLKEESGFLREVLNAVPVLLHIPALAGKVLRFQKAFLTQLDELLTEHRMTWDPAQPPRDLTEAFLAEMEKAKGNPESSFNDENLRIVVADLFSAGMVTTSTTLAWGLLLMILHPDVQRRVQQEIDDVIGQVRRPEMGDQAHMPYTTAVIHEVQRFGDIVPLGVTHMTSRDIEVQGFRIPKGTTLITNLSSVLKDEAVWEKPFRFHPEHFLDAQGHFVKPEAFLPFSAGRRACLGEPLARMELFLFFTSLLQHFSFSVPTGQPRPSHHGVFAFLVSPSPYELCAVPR

CYP2C9 = CYP2C9 (Homo sapiens, UniProt P11712); experiment: as above; format: in vitro ADME
Chain of CYP2C9 (P11712 whole entry): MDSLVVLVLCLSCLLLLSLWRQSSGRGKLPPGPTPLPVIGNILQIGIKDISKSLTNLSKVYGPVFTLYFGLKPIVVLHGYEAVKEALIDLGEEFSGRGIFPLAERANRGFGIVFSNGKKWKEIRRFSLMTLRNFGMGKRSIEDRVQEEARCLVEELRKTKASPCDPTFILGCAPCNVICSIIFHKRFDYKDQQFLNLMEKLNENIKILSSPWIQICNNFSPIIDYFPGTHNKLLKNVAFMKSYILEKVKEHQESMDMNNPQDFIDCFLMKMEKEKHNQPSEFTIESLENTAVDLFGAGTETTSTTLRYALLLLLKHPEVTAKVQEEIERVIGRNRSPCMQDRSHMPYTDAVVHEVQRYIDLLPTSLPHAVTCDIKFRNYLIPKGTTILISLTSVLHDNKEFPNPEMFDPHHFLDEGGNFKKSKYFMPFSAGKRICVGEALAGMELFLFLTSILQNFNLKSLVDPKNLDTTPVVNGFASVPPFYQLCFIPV

CYP2C8 = molecular target: T2, CYP2C8 (Homo sapiens, UniProt P10632); experiment: as above; format: in vitro ADME
T2 sequence (P10632 1-490): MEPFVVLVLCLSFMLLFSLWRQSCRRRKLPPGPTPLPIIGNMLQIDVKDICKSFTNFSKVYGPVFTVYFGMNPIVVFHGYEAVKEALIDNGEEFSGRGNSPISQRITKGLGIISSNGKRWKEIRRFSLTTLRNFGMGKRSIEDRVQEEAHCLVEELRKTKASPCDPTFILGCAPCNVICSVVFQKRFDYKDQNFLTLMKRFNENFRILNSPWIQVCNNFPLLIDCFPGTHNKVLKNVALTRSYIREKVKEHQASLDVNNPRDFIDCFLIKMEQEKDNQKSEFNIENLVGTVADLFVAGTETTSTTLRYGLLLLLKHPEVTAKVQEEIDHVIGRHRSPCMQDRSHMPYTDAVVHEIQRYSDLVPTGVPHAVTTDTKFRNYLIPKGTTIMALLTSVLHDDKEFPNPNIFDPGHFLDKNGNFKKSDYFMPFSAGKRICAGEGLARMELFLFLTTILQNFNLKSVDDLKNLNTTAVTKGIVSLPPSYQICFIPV

[3] = Tolerability / adverse events in phase I studies; format: in vivo, human; conditions: phase I data grouped by CYP2D6-predicted phenotypes
[4] = cited from earlier work
[5] = cited from earlier work; remark: listed apart in the source
[6] = cited from earlier work; remark: listed apart in the source
[7] = cited from earlier work; remark: listed apart in the source
[8] = cited from earlier work; remark: listed apart in the source
[9] = test system: P-glycoprotein (Pgp) transporter; conditions: cited from earlier work
[10] = 10 or 40 mg once daily; ICH E14 definitions; cited from earlier work
5-HT1A receptor = conditions: in vitro; cited from earlier work
5-HT3 receptor = conditions: in vitro; cited from earlier work
5-HT7 receptor = conditions: in vitro; cited from earlier work
5-HT1B receptor = conditions: in vitro; cited from earlier work
[11] = pooled human liver microsomes, CYP isozyme-specific probe substrates, data on file
[12] = simulation, 20 mg at steady state
[13] = mild-to-moderate hepatic impairment, single dose 10 mg (Fig. 2)
[14] = severe hepatic impairment, single dose 5 mg
[15] = bupropion 150 mg twice daily with vortioxetine 10 mg once daily
[16] = fluconazole 200 mg once daily with vortioxetine 10 mg
[17] = ketoconazole 400 mg once daily with vortioxetine 10 mg
[18] = rifampin 600 mg daily with vortioxetine 20 mg

**Q.** For Br.Cc1ccc(Sc2ccccc2N2CCNCC2)c(C)c1 [vortioxetine, 1-[2-(2,4-dimethyl-phenylsulfanyl)-phenyl]-piperazine, hydrobromide], which AUC(0-t) ([1]; 5 mg) is on record?
**A.** 175 ng·h/mL

**Q.** What about the Tmax ([1]; 5 mg) of the same compound?
**A.** 7 h

**Q.** What about the Vd/F ([1]; 5 mg) of the same compound?
**A.** 2500 L

**Q.** What about the half-life ([1]; 5 mg) of the same compound?
**A.** 2.5 days

**Q.** What about the AUC(0-t) ([1]; 10 mg) of the same compound?
**A.** 344 ng·h/mL

**Q.** And the Tmax ([1]; 10 mg)?
**A.** 8 h

**Q.** And the Vd/F ([1]; 10 mg)?
**A.** 3290 L

**Q.** And the half-life ([1]; 10 mg)?
**A.** 2.45 days

**Q.** And the AUC(0-t) ([1]; 20 mg)?
**A.** 646 ng·h/mL

**Q.** And the Tmax ([1]; 20 mg)?
**A.** 8 h

**Q.** And the Vd/F ([1]; 20 mg)?
**A.** 3370 L

**Q.** And the half-life ([1]; 20 mg)?
**A.** 2.68 days

**Q.** And the “AI (accumulation index = AUC(0–tau) at steady state/AUC(0–24) day 1)” value ([1]; multiple doses 5 mg)?
**A.** 5.17 (27)

**Q.** And the CL/F ([1]; multiple doses 5 mg)?
**A.** 32.96 (33) L/h

**Q.** What about the C max ([1]; multiple doses 5 mg) of the same compound?
**A.** 8.69 (42) ng/mL

**Q.** And the “AI (accumulation index = AUC(0–tau) at steady state/AUC(0–24) day 1)” value ([1]; multiple doses 10 mg)?
**A.** 4.87 (34)

**Q.** And the CL/F ([1]; multiple doses 10 mg)?
**A.** 38.27 (60) L/h

**Q.** What about the C max ([1]; multiple doses 10 mg) of the same compound?
**A.** 17.92 (44) ng/mL

**Q.** And the “AI (accumulation index = AUC(0–tau) at steady state/AUC(0–24) day 1)” value ([1]; multiple doses 20 mg)?
**A.** 5.68 (38)

**Q.** What about the CL/F ([1]; multiple doses 20 mg) of the same compound?
**A.** 40.11 (47) L/h

**Q.** What about the C max ([1]; multiple doses 20 mg) of the same compound?
**A.** 33.03 (38) ng/mL

**Q.** And the “accumulation index (AUC(0–24) ratio steady state / single dose)” value ([1]; multiple doses of 5–20 mg (Table 2))?
**A.** 5–6

**Q.** What about the “red blood cell distribution” value [2] of the same compound?
**A.** negligible

**Q.** And the “inhibitory in-vitro effect on CYP1A2” value (CYP1A2)?
**A.** no inhibitory in-vitro effect

**Q.** And the “inhibitory in-vitro effect on CYP2E1” value (CYP2E1)?
**A.** no inhibitory in-vitro effect

**Q.** And the “inhibitory in-vitro effect on CYP2D6” value (CYP2D6)?
**A.** no inhibitory in-vitro effect

**Q.** And the “ratio of maximum plasma concentration of inhibitor (I) and Ki” value (CYP2C9; CYP2C9, much smaller than)?
**A.** smaller than 0.1

**Q.** And the “inhibitory effect on CYP2C9” value (CYP2C9; [11])?
**A.** inhibitory effect

**Q.** What about the “ratio of maximum plasma concentration of inhibitor (I) and Ki” value (CYP2C8; CYP2C8, much smaller than) of the same compound?
**A.** smaller than 0.1

**Q.** And the “inhibitory effect on CYP2C8” value (CYP2C8; [11])?
**A.** inhibitory effect

**Q.** And the “overall incidence of adverse events, CYP2D6 PMs vs non-PMs” value [3]?
**A.** no clinically relevant differences

**Q.** What about the “estimated CL/F” value ([4]; CYP2D6 EMs) of the same compound?
**A.** 34.1 L/h

**Q.** What about the “estimated CL/F” value ([4]; CYP2D6 IMs) of the same compound?
**A.** 26.6 L/h

**Q.** What about the “estimated CL/F” value ([4]; CYP2D6 PMs) of the same compound?
**A.** 18.1 L/h

**Q.** What about the “estimated CL/F” value ([4]; CYP2D6 UMs) of the same compound?
**A.** 52.9 L/h

**Q.** What about the “oral clearance, CYP2C19 EMs relative to PMs” value [4] of the same compound?
**A.** 1.4 times

**Q.** What about the “oral clearance, CYP2D6 EMs higher than PMs” value [4] of the same compound?
**A.** approximately two-fold

**Q.** What about the “exposure in CYP2D6 PMs relative to CYP2D6 EMs” value ([4]; expected) of the same compound?
**A.** twice as high

**Q.** What about the “population mean AUC lower in CYP2D6 UMs than EMs” value ([4]; expected) of the same compound?
**A.** 35.5%

**Q.** And the “estimated minimal lag time” value ([4]; oral)?
**A.** 0.781 h

**Q.** What about the mean oral clearance ([4]; phase I population-PK analysis) of the same compound?
**A.** 33 L/h

**Q.** And the “AUC(0–24) higher, 75-year-old vs 40-year-old” value [4, 12]?
**A.** 40%

**Q.** What about the “AUC(0–24) lower, 18-year-old vs 40-year-old” value [4, 12] of the same compound?
**A.** 15%

**Q.** And the “C max higher, 75-year-old vs 40-year-old” value [4, 12]?
**A.** 38%

**Q.** What about the “C max lower, 18-year-old vs 40-year-old” value [4, 12] of the same compound?
**A.** 14%

**Q.** And the “C max and AUC(0–24) higher, 155 cm vs 175 cm person” value ([4]; simulation, 20 mg)?
**A.** 5%

**Q.** What about the “C max and AUC(0–24) lower, 187 cm vs 175 cm person” value ([4]; simulation, 20 mg) of the same compound?
**A.** 4%

**Q.** What about the “effect of food (high-fat meal) on PK parameters” value ([5]; fed vs fasting) of the same compound?
**A.** No food effect

**Q.** And the “90% CIs for AUC(0–t) or AUC(0–inf) and C max ratios (fed to fasting)” value ([5]; high-fat meal, within bioequivalence range)?
**A.** 80–125%

**Q.** And the “hepatic clearance, contribution to CL/F” value [6]?
**A.** 99%

**Q.** What about the “renal clearance of parent drug, contribution to CL/F” value [6] of the same compound?
**A.** < 1%

**Q.** And the “fraction of unbound parent drug, hepatically impaired vs healthy” value [7]?
**A.** no differences

**Q.** And the “AUC(0–t) lower than healthy cohorts” value [7, 13]?
**A.** up to 9%

**Q.** And the “C max lower than healthy cohorts” value [7, 13]?
**A.** up to 16%

**Q.** And the “AUC(0–t) higher than healthy controls” value [7, 14]?
**A.** 10%

**Q.** And the “C max lower than healthy controls” value [7, 14]?
**A.** 24%

**Q.** And the “AUC(0–24) increase of vortioxetine” value [8, 15]?
**A.** 2.3 fold

**Q.** What about the “C max increase of vortioxetine” value [8, 15] of the same compound?
**A.** 2.1 fold

**Q.** And the “AUC(0–t) and C max of vortioxetine with a Pgp inhibitor” value ([8]; co-administered with ketoconazole)?
**A.** marginally increased

**Q.** What about the “effect on exposure to vortioxetine” value ([8]; co-administration of aspirin) of the same compound?
**A.** no effect

**Q.** And the “effect on exposure to vortioxetine” value ([8]; co-administration of ethanol)?
**A.** no effect

**Q.** What about the “effect on exposure to vortioxetine” value ([8]; co-administration of omeprazole) of the same compound?
**A.** no effect

**Q.** And the “AUC(0–t) increase of vortioxetine” value [8, 16]?
**A.** 46%

**Q.** And the “C max increase of vortioxetine” value [8, 16]?
**A.** 15%

**Q.** What about the “AUC(0–t) increase of vortioxetine” value [8, 17] of the same compound?
**A.** 30%

**Q.** What about the “C max increase of vortioxetine” value [8, 17] of the same compound?
**A.** 26%

**Q.** What about the “AUC(0–t) decrease of vortioxetine” value [8, 18] of the same compound?
**A.** 72%

**Q.** And the “C max decrease of vortioxetine” value [8, 18]?
**A.** 51%

**Q.** And the “I/half maximal inhibitory concentration (Pgp efflux)” value [9]?
**A.** smaller than 0.1

**Q.** And the “Pgp substrate in vitro” value ([9]; in vitro)?
**A.** poor substrate

**Q.** What about the “inhibition of Pgp transport in vitro” value ([9]; in vitro) of the same compound?
**A.** weak inhibitor

**Q.** And the “effect on cardiac repolarization” value [10]?
**A.** unlikely to affect cardiac repolarization

**Q.** What about the “action at 5-HT1A receptor” value (5-HT1A receptor) of the same compound?
**A.** agonist

**Q.** What about the “action at 5-HT3 receptor” value (5-HT3 receptor) of the same compound?
**A.** antagonist

**Q.** What about the “action at 5-HT7 receptor” value (5-HT7 receptor) of the same compound?
**A.** antagonist

**Q.** What about the “action at 5-HT1B receptor” value (5-HT1B receptor) of the same compound?
**A.** partial agonist
